Laboratory results: patent publication US6710060B2, “4-hydroxypiperidine derivatives having antiarrhythmic activity” (Mochida Pharmaceutical Co., Ltd., priority 1999, dated 2004)
Where a name gives a salt, the structure may show the parent alone.

Tested on: not given
Assay: not given
Details: not given

| SMILES | melting point |
| --- | --- |
| CCCCOc1ccc(N(C)CCC2(OC)CCN(Cc3ccccc3)CC2)cc1 (as salt: hydrochloride) [Example 201, 1-benzyl-4-methoxy-4-[2-[N-(4-n-butoxyphenyl)-N-methylamino]ethyl]piperidine dihydrochloride] | 215 °C (dec.) |
| CC(C)Oc1ccc(NCCC2(O)CCN(Cc3ccc(C(F)(F)F)cc3)CC2)cc1 [Example 125, 4-[2-[N-(4-isopropoxyphenyl)amino]ethyl]-1-[4-(trifluoromethyl)phenylmethyl]piperidin-4-ol] | 152.3 to 153.1 °C |
| CC(C)Oc1ccc(N(C)CCC2(O)CCN(Cc3ccc(F)cc3F)CC2)cc1 [Example 87, 1-(2,4-difluorophenylmethyl)-4-[2-[N-methyl-N-(4-isopropoxyphenyl)amino]ethyl]piperidin-4-ol] | 77.6 to 77.9 °C |
| CCCCOc1ccc(N(C)CCC2(O)CCN(Cc3ccc(C(=O)OC)cc3)CC2)cc1 [Example 23, 4-[2-[N-(4-n-butoxyphenyl)-N-methylamino]ethyl]-1-(4-methoxycarbonylphenylmethyl)piperidin-4-ol] | 82.5 to 82.8 °C |
| CC(C)Oc1ccc(N(C)CCC2(O)CCN(Cc3ccc(F)c(C(F)(F)F)c3)CC2)cc1 [Example 88, 1-[4-fluoro-3-(trifluoromethyl)phenylmethyl]-4-[2-[N-methyl-N-(4-isopropoxyphenyl)amino]ethyl]piperidin-4-ol] | 58.8 to 62.8 °C |
| CCCCOc1ccc(N(C)CCC2(O)CCN(C3Cc4ccccc4C3)CC2)cc1 [Example 32, 4-[2-[N-(4-n-butoxyphenyl)-N-methylamino]ethyl]-1-(2,3-dihydro-1H-indene-2-yl)piperidin-4-ol] | 94.4 to 94.6 °C |
| CCCCOc1ccc(N(C)CCC2(O)CCN(Cc3ccc(C)cc3)CC2)cc1 [Example 31, 4-[2-[N-(4-n-butoxyphenyl)-N-methylamino]ethyl]-1(4-methylphenylmethyl)piperidin-4-ol] | 73.3 to 75 °C |
| CN(CCC1(O)CCN(Cc2ccccc2)CC1)c1ccc(OC2CCC2)cc1 [Example 17, 1-Benzyl-4-[2-[N-(4-cyclobutoxyphenyl)-N-methylamino]-ethyl]piperidin-4-ol] | 68.6 to 69.8 °C |
| CCCCOc1ccc(N(C)CCC2(O)CCN(Cc3ccc(F)c(F)c3)CC2)cc1 [Example 30, 4-[2-[N-(4-n-butoxyphenyl)-N-methylamino]ethyl]-1-(3,4-difluorophenylmethyl)piperidin-4-ol] | 49.8 to 50.5 °C |
| CC(C)Oc1ccc(N(C)CCC2(O)CCN(Cc3ccc(C#N)cc3)CC2)cc1 (as salt: hydrochloride) [Example 226, 1-(4-cyanophenylmethyl)-4-[2-[N-methyl-N-(4-isopropoxyphenyl)amino]ethyl]piperidin-4-ol dihydrochloride] | 220.8 to 222.2 °C |
| CC(C)Oc1ccc(N(C)CCC2(O)CCN(Cc3ccc(Br)cc3)CC2)cc1 [Example 73, 1-(4-bromophenylmethyl)-4-[2-[N-methyl-N-(4-isopropoxyphenyl)amino]ethyl]piperidin-4-ol] | 104.3 to 105 °C |
| CCCCOc1ccc(N(CCC2(O)CCN(CCc3ccc(F)cc3)CC2)C(C)=O)cc1 [Example 57, 4-[2-[N-acetyl-N-(4-n-butoxyphenyl)amino]ethyl]-1-[2-(4-fluorophenyl)ethyl]piperidin-4-ol] | 121.6 to 122.1 °C |
| CCCCOc1ccc(N(C)CCC2(O)CCN(CCc3ccc(F)cc3)CC2)cc1 (as salt: hydrochloride) [Example 176, 4-[2-[N-(4-n-butoxyphenyl)-N-methylamino]ethyl]-1-[2-(4-fluorophenyl)ethyl]piperidin-4-ol dihydrochloride] | 207 °C (dec.) |
| CC(C)Oc1ccc(N(C)CCC2(O)CCN(Cc3ccc(C#N)cc3)CC2)cc1 [Example 79, 1-(4-cyanophenylmethyl)-4-[2-[N-methyl-N-(4-isopropoxyphenyl)amino]ethyl]piperidin-4-ol] | 108.1 to 109.5 °C |
| COc1ccc(CN2CCC(O)(CCN(C)c3ccc(OC(C)C)cc3)CC2)cc1 [Example 76, 1-(4-methoxyphenylmethyl)-4-[2-[N-methyl-N-(4-isopropoxyphenyl)amino]ethyl]piperidin-4-ol] | 50.8 to 52.4 °C |

Tested on: Electrocardiogram in Rats
Assay: Effect on electrocardiogram in rats
Type: in vivo
Details: 5 mg/kg intravenous, anesthetized rat, two minutes after administration
Experimental: [Effect on Electrocardiogram in Rats]
After anesthetizing with 1.5 g/kg (s.c.) of urethane, a rat was fixed on a warm plate at its supination. Polyethylene tubes for administering a test compound and for measuring the blood pressure were inserted into and fixed to the jugular vein and femoral artery, respectively. The blood pressure of the artery was measured using a pressure transducer. An electrode was attached to the animal, electrocardiograms were led by the standard lead II. The heart rate was measured by using a heart rate counter. The test compound was given by intravenous injection when the blood pressure and heat rate had been stabilized after the operation. […] Each parameter on the electrocardiogram was processed using an analysis software running on the personal computer to calculate the rate of change as compared with that before administration.

| SMILES | PQ Distance (rate of change) | QRS Width (rate of change) |
| --- | --- | --- |
| CCCCOc1ccc(N(C)CCC2(O)CCN(Cc3ccc(F)cc3)CC2)cc1 [Example 177, 4-[2-[N-(4-n-butoxyphenyl)-N-methylamino]ethyl]-1(4-fluorophenylmethyl)piperidin-4-ol dihydrochloride] | — (The rate of change at two minutes after administration is 15% or less as compared with that before administration.) | — (The rate of change at two minutes after administration is 15% or less as compared with that before administration.) |
| CCCCOc1ccc(N(C)CCC2(OC)CCN(Cc3ccccc3)CC2)cc1 [Example 201, 1-benzyl-4-methoxy-4-[2-[N-(4-n-butoxyphenyl)-N-methylamino]ethyl]piperidine dihydrochloride] | — (The rate of change at two minutes after administration is 15% or less as compared with that before administration.) | — (The rate of change at two minutes after administration is 15% or less as compared with that before administration.) |
| CC(C)Oc1ccc(N(C)CCC2(O)CCN(Cc3ccc(C#N)cc3)CC2)cc1 [Example 226, 1-(4-cyanophenylmethyl)-4-[2-[N-methyl-N-(4-isopropoxyphenyl)amino]ethyl]piperidin-4-ol dihydrochloride] | — (The rate of change at two minutes after administration is 15% or less as compared with that before administration.) | — (The rate of change at two minutes after administration is 15% or less as compared with that before administration.) |
| CCCCOc1ccc(N(C)CCC2(O)CCN(Cc3ccc4c(c3)OCO4)CC2)cc1 [Example 162, 4-[2-[N-(4-n-butoxyphenyl)-N-methylamino]ethyl]-1-(3,4-methylenedioxyphenylmethyl)piperidin-4-ol dihydrochloride] | — (The rate of change at two minutes after administration is 15% or less as compared with that before administration.) | — (The rate of change at two minutes after administration is 15% or less as compared with that before administration.) |
| CCCCOc1ccc(N(C)CCC2(O)CCN(CC(O)c3ccc(F)cc3)CC2)cc1 (stereo not drawn) [Example 198, 4-[2-[N-(4-n-butoxyphenyl)-N-methylamino]ethyl]-1-[2-(4-fluorophenyl)-2-hydroxyethyl]piperidin-4-ol dihydrochloride] | — (The rate of change at two minutes after administration is 15% or less as compared with that before administration.) | — (The rate of change at two minutes after administration is 15% or less as compared with that before administration.) |
| CCCCOc1ccc(N(C)CC(O)C2(O)CCN(CCc3ccc(F)cc3)CC2)cc1 (stereo not drawn) [Example 196, 4-[2-[N-(4-n-butoxyphenyl)-N-methylamino]-1-hydroxyethyl]-1-[2-(4-fluorophenyl)ethyl]piperidin-4-ol dihydrochloride] | — (The rate of change at two minutes after administration is 15% or less as compared with that before administration.) | — (The rate of change at two minutes after administration is 15% or less as compared with that before administration.) |
